Converted amounts (≈) assume the structure as drawn. Where two headings read alike, the source gives them in different places.
Experiments:
SW480 cells = test: MTT assay, SW480; format: cell-based, human; conditions: for IC50: human primary colon cancer, 72 h, MTT, mean ± SD; for SI SW480: SI = IC50 for normal cell line (HaCaT)/IC50 cancer cell line
SW620 cells = test: MTT assay, SW620; format: cell-based, human; conditions: for IC50: Homo sapiens, SW-620, 72 h, human metastatic colon cancer, 72 h, MTT, mean ± SD; for SI SW620: SI = IC50 for normal cell line (HaCaT)/IC50 cancer cell line
PC3 cells = test: MTT assay, PC3; format: cell-based, human; conditions: for IC50: human metastatic prostate cancer, 72 h, MTT, mean ± SD; for SI PC3: SI = IC50 for normal cell line (HaCaT)/IC50 cancer cell line
HaCaT cells = test: MTT assay, HaCaT normal cells; format: cell-based; conditions: human immortal keratinocyte cell line, 72 h, mean ± SD
S. aureus NCTC 4163 = test: MIC, twofold microdilution, standard strain; format: cell-based; conditions: Staphylococcus aureus, read-out: MIC S. aureus NCTC 4163
S. aureus ATCC 25923 = test: MIC, twofold microdilution, standard strain; format: cell-based; conditions: Staphylococcus aureus, read-out: MIC S. aureus ATCC 25923
S. aureus ATCC 6538 = test: MIC, twofold microdilution, standard strain; format: cell-based; conditions: Staphylococcus aureus, read-out: MIC S. aureus ATCC 6538
S. aureus ATCC 29213 = test: MIC, twofold microdilution, standard strain; format: cell-based; conditions: Staphylococcus aureus, read-out: MIC S. aureus ATCC 29213
[1] = tested on: S. epidermidis ATCC 12228; test: MIC, twofold microdilution, standard strain; format: cell-based; conditions: Staphylococcus epidermidis, read-out: MIC S. epidermidis ATCC 12228
[2] = tested on: S. epidermidis ATCC 35984; test: MIC, twofold microdilution, standard strain; format: cell-based; conditions: Staphylococcus epidermidis, read-out: MIC S. epidermidis ATCC 35984
E. coli ATCC 25922 = test: MIC, twofold microdilution, standard strain; format: cell-based, Escherichia coli; conditions: Escherichia coli, read-out: MIC E. coli ATCC 25922
P. aeruginosa ATCC 27853 = test: MIC, twofold microdilution, standard strain; format: cell-based; conditions: Pseudomonas aeruginosa, read-out: MIC P. aeruginosa ATCC 27853
[3] = tested on: S. epidermidis KR 4047 825/19; test: MIC, clinical S. epidermidis strain; format: cell-based; conditions: Staphylococcus epidermidis, KR4047825/19, quinolone-resistant, 18 h of treatment
[4] = tested on: S. epidermidis KR 4243 829/19; test: MIC, clinical S. epidermidis strain; format: cell-based; conditions: Staphylococcus epidermidis, KR4243829/19, quinolone-susceptible, 18 h of treatment
[5] = tested on: S. epidermidis KR 4313 834/19; test: MIC, clinical S. epidermidis strain; format: cell-based; conditions: Staphylococcus epidermidis, KR4313834/19, quinolone-susceptible, 18 h of treatment
[6] = tested on: S. epidermidis KR 4358/2 840/19; test: MIC, clinical S. epidermidis strain; format: cell-based; conditions: Staphylococcus epidermidis, read-out: MIC KR 4358/2 840/19
[7] = tested on: S. epidermidis T 5253 845/19; test: MIC, clinical S. epidermidis strain; format: cell-based; conditions: Staphylococcus epidermidis, T5253845/19, quinolone-resistant, 18 h of treatment
[8] = tested on: S. epidermidis T 5399 848/19; test: MIC, clinical S. epidermidis strain; format: cell-based; conditions: Staphylococcus epidermidis, T5399848/19, quinolone-susceptible, 18 h of treatment
[9] = tested on: S. epidermidis T 5501 851/19; test: MIC, clinical S. epidermidis strain; format: cell-based; conditions: Staphylococcus epidermidis, T5501851/19, read-out: MIC T 5501 851/19, quinolone-susceptible, 18 h of treatment
M. tuberculosis H37Rv = test: MABA (microplate Alamar blue assay) MIC; format: cell-based; conditions: Mycobacterium tuberculosis, 336 h, read-out: MIC M. tuberculosis H37Rv
[10] = tested on: M. tuberculosis Spec. 192 (Sensitive to Tuberculostatics); test: MABA (microplate Alamar blue assay) MIC; format: cell-based; conditions: Mycobacterium tuberculosis, 336 h, read-out: MIC M. tuberculosis Spec. 192 (Sensitive to Tuberculostatics)
[11] = tested on: standard staphylococci (S. aureus, S. epidermidis); test: MIC, standard Gram-positive strains as a group; format: cell-based; conditions: Staphylococcus aureus; range over standard Gram-positive strains; read-out: MIC against standard staphylococci
M. tuberculosis strains = test: MABA MIC, mycobacterial strains as a group; format: cell-based; conditions: Mycobacterium tuberculosis; summary over strains; read-out: MIC antimycobacterial (strain not specified)
[12] = tested on: SW480, SW620, and PC3 cancer cell lines; test: MTT assay, cancer cell lines as a group; format: cell-based, human; conditions: 72 h, all three cancer cell lines (SW480, SW620, PC3), read-out: IC50 against all tested cancer cell lines
[13] = KR4358/2840/19, clinical S. epidermidis, quinolone-susceptible, 18 h of treatment

| Compound | IC50 (SW480 cells; Homo sapiens, SW480, 72 h) [µM] | SI SW480 (SW480 cells) | IC50 (SW620 cells) [µM] | SI SW620 (SW620 cells) | IC50 (PC3 cells; Homo sapiens, PC-3, 72 h) [µM] | SI PC3 (PC3 cells) | IC50 (HaCaT cells) [µM] | MIC (S. aureus NCTC 4163; NCTC4163, 18 h of treatment) [µg/mL] | MIC (S. aureus ATCC 25923; ATCC25923, 18 h of treatment) [µg/mL] | MIC (S. aureus ATCC 6538; ATCC6538, 18 h of treatment) [µg/mL] | MIC (S. aureus ATCC 29213; ATCC29213, 18 h of treatment) [µg/mL] | MIC ([1]; ATCC12228, 18 h of treatment) [µg/mL] | MIC ([2]; ATCC35984, 18 h of treatment) [µg/mL] | MIC [3] [µg/mL] | MIC [4] [µg/mL] | MIC [5] [µg/mL] | MIC [7] [µg/mL] | MIC [8] [µg/mL] | MIC [9] [µg/mL] | MIC [11] [µg/mL] | also measured |
| --- | --- | --- | --- | --- | --- | --- | --- | --- | --- | --- | --- | --- | --- | --- | --- | --- | --- | --- | --- | --- | --- |
| CCCCC/C=C\C/C=C\CCCCCCCC(=O)N1CCCC2CN(c3c(F)cc4c(=O)c(C(=O)O)cn(C5CC5)c4c3OC)CC21 (stereo not shown) [Compound 11m, 1-Cyclopropyl-6-fluoro-8-methoxy-7-{1-(9Z,12Z)-octadeca-9,12-dienoyl-octahydropyrrolo-[3,4-b]pyridin-6-yl)-4-oxo-1,4-dihydro-quinoline-3-carboxylic acid] | < 5 | 19.0 | 7.3 ± 0.9 | 12.5 | < 5 | 25.4 | 91.4 ± 5.3 | > 512 | > 512 | > 512 | > 512 | > 512 | > 512 | 512 (≈ 771 µM) | 256 (≈ 386 µM) | 64 (≈ 96.4 µM) | 512 (≈ 771 µM) | 512 (≈ 771 µM) | 512 (≈ 771 µM) | > 32 | IC50 (SW480 cells): 4.8 ± 1.3 µM; IC50 (PC3 cells): 3.6 ± 1.1 µM; MIC (E. coli ATCC 25922; ATCC25922, 18 h of treatment): > 512 µg/mL; MIC (P. aeruginosa ATCC 27853; ATCC27853, 18 h of treatment): > 512 µg/mL; MIC [6, 13]: 128 µg/mL (≈ 193 µM); MIC (M. tuberculosis H37Rv; 2 weeks of treatment): 512 µg/mL (≈ 771 µM); MIC ([10]; 2 weeks of treatment): 128 µg/mL (≈ 193 µM); MIC (M. tuberculosis strains): ≥ 128 µg/mL |
| CC/C=C\C/C=C\C/C=C\CCCCCCCC(=O)N1CCCC2CN(c3c(F)cc4c(=O)c(C(=O)O)cn(C5CC5)c4c3OC)CC21 (stereo not shown) [Compound 6m, 1-Cyclopropyl-6-fluoro-8-methoxy-7-{1-(9Z,12Z,15Z)-octadeca-9,12,15-trienoyl-octahydro-pyrrolo[3,4-b]pyridin-6-yl}-4-oxo-1,4-dihydro-quinoline-3-carboxylic acid] | 16.7 ± 3.1 | 5.8 | 15.6 ± 2.6 | 6.2 | 14.4 ± 2.4 | 6.7 | 96.6 ± 5.5 | 16 (≈ 24.2 µM) | 32 (≈ 48.3 µM) | 16 (≈ 24.2 µM) | 16 (≈ 24.2 µM) | 32 (≈ 48.3 µM) | 32 (≈ 48.3 µM) | 256 (≈ 387 µM) | 64 (≈ 96.7 µM) | 64 (≈ 96.7 µM) | 256 (≈ 387 µM) | 32 (≈ 48.3 µM) | 128 (≈ 193 µM) | 8 to 32 (≈ 12.1 to 48.3 µM) | MIC (E. coli ATCC 25922; ATCC25922, 18 h): 256 µg/mL (≈ 387 µM); MIC (P. aeruginosa ATCC 27853; ATCC27853, 18 h of treatment): > 512 µg/mL; MIC [6, 13]: 64 µg/mL (≈ 96.7 µM); MIC (M. tuberculosis H37Rv): 256 µg/mL (≈ 387 µM); MIC ([10]; 2 weeks of treatment): 128 µg/mL (≈ 193 µM); MIC (M. tuberculosis strains): ≥ 128 µg/mL |
| CCCCC/C=C\C/C=C\C/C=C\CCCCC(=O)N1CCCC2CN(c3c(F)cc4c(=O)c(C(=O)O)cn(C5CC5)c4c3OC)CC21 (stereo not shown) [Compound 12m, 1-Cyclopropyl-6-fluoro-8-methoxy-7-{1-(6Z,9Z,12Z)-octadeca-6,9,12-trienoyl-octahydro-pyrrolo[3,4-b]pyridin-6-yl}-4-oxo-1,4-dihydro-quinoline-3-carboxylic acid] | 16.8 ± 2.3 | 5.3 | 18.3 ± 3.2 | 4.8 | 14.7 ± 2.3 | 6.0 | 88.7 ± 3.3 | 64 (≈ 96.7 µM) | 64 (≈ 96.7 µM) | 64 (≈ 96.7 µM) | 64 (≈ 96.7 µM) | 64 (≈ 96.7 µM) | 32 (≈ 48.3 µM) | 256 (≈ 387 µM) | 32 (≈ 48.3 µM) | 256 (≈ 387 µM) | 512 (≈ 774 µM) | 32 (≈ 48.3 µM) | 32 (≈ 48.3 µM) | > 32 | MIC (E. coli ATCC 25922; ATCC25922, 18 h of treatment): 128 µg/mL (≈ 193 µM); MIC (P. aeruginosa ATCC 27853; ATCC27853, 18 h of treatment): > 512 µg/mL; MIC [6, 13]: 512 µg/mL (≈ 774 µM); MIC (M. tuberculosis H37Rv; 2 weeks of treatment): 64 µg/mL (≈ 96.7 µM); MIC ([10]; 2 weeks of treatment): 64 µg/mL (≈ 96.7 µM); MIC (M. tuberculosis strains): 64 µg/mL (≈ 96.7 µM) |
| CCCCCCCC/C=C/CCCCCCCC(=O)N1CCCC2CN(c3c(F)cc4c(=O)c(C(=O)O)cn(C5CC5)c4c3OC)CC21 (stereo not shown) [Compound 5m, 1-Cyclopropyl-6-fluoro-8-methoxy-7-{1-(E)-octadec-9-enoyl-octahydro-pyrrolo[3,4-b]pyridin-6-yl}-4-oxo-1,4-dihydro-quinoline-3-carboxylic acid] | 6.7 ± 0.6 | 13.7 | 8.7 ± 1.2 | 10.5 | 5.3 ± 1.3 | 17.3 | 91.6 ± 4.6 | > 512 | > 512 | > 512 | > 512 | > 512 | > 512 | > 512 | > 512 | 256 (≈ 384 µM) | 512 (≈ 769 µM) | 512 (≈ 769 µM) | 512 (≈ 769 µM) | > 32 | MIC (E. coli ATCC 25922; ATCC25922, 18 h of treatment): > 512 µg/mL; MIC (P. aeruginosa ATCC 27853; ATCC27853, 18 h of treatment): 128 µg/mL (≈ 192 µM); MIC [6, 13]: 512 µg/mL (≈ 769 µM); MIC (M. tuberculosis H37Rv; 2 weeks of treatment): 512 µg/mL (≈ 769 µM); MIC [10]: 256 µg/mL (≈ 384 µM); IC50 ([12]; Homo sapiens): 5 to 10 µM |
| CCCCCCCCCCCCCCCC(=O)N1CCC[C@H]2CN(c3c(F)cc4c(=O)c(C(=O)O)cn(C5CC5)c4c3OC)C[C@H]21 [Compound 9m, 1-Cyclopropyl-6-fluoro-7-(1-hexadecanoyl-octahydro-pyrrolo[3,4-b]pyridin-6-yl)-8-methox-4-oxo-1,4-dihydro-quinoline-3-carboxylic acid] | 9.4 ± 2.3 | 10.3 | 10.4 ± 1.4 | 9.3 | 8.1 ± 1.5 | 11.9 | 96.7 ± 2.6 | – | – | – | – | – | – | 512 (≈ 800 µM) | 512 (≈ 800 µM) | 512 (≈ 800 µM) | 512 (≈ 800 µM) | 512 (≈ 800 µM) | 512 (≈ 800 µM) | > 32 | MIC (S. aureus NCTC 4163; NCTC4163, 18 h): > 512 µg/mL; MIC (S. aureus ATCC 25923; ATCC25923, 18 h): > 512 µg/mL; MIC (S. aureus ATCC 6538; ATCC6538, 18 h): > 512 µg/mL; MIC (S. aureus ATCC 29213; ATCC29213, 18 h): > 512 µg/mL; MIC ([1]; ATCC12228, 18 h): > 512 µg/mL; MIC ([2]; ATCC35984, 18 h): > 512 µg/mL; MIC (E. coli ATCC 25922; ATCC25922, 18 h): > 512 µg/mL; MIC (P. aeruginosa ATCC 27853; ATCC27853, 18 h): > 512 µg/mL; MIC ([6]; KR4358/2840/19, 18 h): > 512 µg/mL; MIC (M. tuberculosis H37Rv): > 512 µg/mL; MIC [10]: > 512 µg/mL; IC50 ([12]; Homo sapiens): 5 to 10 µM; IC50 [12]: 5.6 to 10.4 µM |

Source: paper PMC9181188 (International Journal of Molecular Sciences, 2022)
